This is an account of results in patent publication US20240139151A1, “COMPOSITION INCLUDING DECURSINOL AS ACTIVE INGREDIENT FOR PREVENTING OR TREATING SMOOTH MUSCLE CELL PROLIFERATIVE DISEASES” (KYUNGSUNG UNIVERSITY INDUSTRY COOPERATION FOUNDATION, priority 2021, published 2024).

By pIC50 is commonly meant −log10 of the IC50, conventionally taken in molar units. A low value points to a large IC50.

pIC50: −log10 of the molar value. “Also recorded” adds a separate entry of the source.

The test system of data set [1] is vascular smooth cell line A10. Briefly: Inhibition of high glucose-induced proliferation of A10 cells (EC100). The data set is classed as cell-based. The note with it: 30 mM D-glucose, 0-500 μM.
Method: (§1) The vascular smooth cell line A10 was loaded at a density of 1×10^3 cells/ml into 96-well plates and after 16 hours, the medium was replaced with a medium having a concentration of 5.5 mM or 30 mM D-glucose. Subsequently, decursin, decursinol angelate and decursinol were each applied at concentrations of 0, 20, 50, 100, 200, and 500 μM to the cells. IC50, a concentration at which the growth of the cells is inhibited by 50%, and EC100, a concentration which inhibits the growth of cells in a high sugar level environment to a normal cell population, were measured, and therapeutic indices were calculated by dividing IC50 by EC100. […] Then, effects of decursin and decursinol angelate to inhibit the proliferation of A10 cells in high glucose were expressed as EC100. EC100 refers to the concentration at which high glucose-induced proliferation of A10 cells is inhibited to normal glucose levels by the drug.
The nature of another data set: in vitro. The note with it: rat, IC50, concentration at which the growth of the cells is inhibited by 50% (cytotoxicity).
Data set [2] can be described thus: Cytotoxicity (IC50) on A10 cells. The note with it: rat, A10 vascular smooth muscle cells, IC50, concentration at which the growth of the cells is inhibited by 50% (cytotoxicity), 0-500 μM, cytotoxicity under normal glucose conditions.
Method: as §1
Data set [3] can be described thus: Blood pressure safety test in rats after two weeks of oral administration. The data set is classed as in vivo. The note with it: measured the day after final administration. The source says:
The present inventors have been studying Angelica gigas Nakai for many years while observing the effect of Angelica gigas Nakai extract on blood pressure. In general, Angelica gigas Nakai is a traditional herb that has been used for food and medicine for a long time because of its excellent hematopoietic, anticancer, antioxidant, and anti-inflammatory actions. However, direct use of the Angelica gigas extract has the problem of inducing high blood pressure according to the preparation thereof. In this Example, the Angelica extracts obtained in Examples 1-1 and 1-2 and 99.9% pure decursinol of the present disclosure were administered to rats and assayed for safety for blood pressure.
Using a blood pressure analyzer (3R229 3 channel rat system, Life Science), rats were measured for blood pressure while being acclimated to blood measurement operation. When the blood pressure analyzer is being operated, laboratory rats are startled by the sound of air pressure and rise in blood pressure. In order to eliminate this effect, after adaptation by repeatedly measuring 5 times a day, the experiment was performed when the blood pressure was kept stable, and the blood pressure was regularly measured every day even during the experiment to adapt the rats to the analyzer. When measuring blood pressure, the head was covered with a handkerchief to block light for stabilization. Fifteen experimental rats were divided into 5 groups of 3 rats for the next administration experiment and measured for blood pressure. A control (physiological saline), the Angelica extracts, and decursinol were each orally administered for two weeks, and the blood pressures measured the next day after the final administration are given in Table 1.

Data set [4] deals with vascular smooth muscle cell line A10. Briefly: Effect of decursinol on high sugar-induced proliferation of A10 cells (cell count). The data set is classed as cell-based. As to the method: The effect of decursinol on the high sugar-induced proliferation of A10 cells was investigated. […] Then, each well was treated with 25 μM of solubilized decursinol, and the cells were counted after 1, 2, and 3 days. The results are depicted in FIG. 4.

Data set [5] shares this test system. Briefly: Cytotoxicity of decursinol, live and dead cell count. Type of data set: cell-based. The note with it: live and dead cells counted. The text has this: In order to examine the cytotoxicity of decursinol, both live and dead cells were counted. After treatment with decursinol, 98% or more of live cells were observed alive.
In data set [6] the test system is phospho-protein kinase C (p-PKC). Briefly: Western blotting of phospho-PKC with a pan-phospho-PKC antibody in A10 cells. Type of data set: cell-based. The note with it: 30 mM D-glucose, 10 and 25 μM solubilized decursinol, 24 hours. The method, then:
Examination was made to see whether the inhibitory effect of decursinol on high sugar-induced proliferation of A10 cells was associated with PKC. […] Then, each well was treated with 10 and 25 μM of solubilized decursinol and incubated for 24 hours. Western blotting was carried out using a pan-phospho-PKC antibody and the results are depicted in FIG. 5.
(Immunoblotting shows a protein as a band on a membrane.)

The subject of data set [7] is vascular smooth cell line A10. The note with it: rat.
Method: as §1

Method for in vitro: as §1

Regarding `CC(C)=CC(=O)O[C@H]1Cc2cc3ccc(=O)oc3cc2OC1(C)C` [Decursin, decursin], the “EC100, concentration at which high glucose-induced proliferation of A10 cells is inhibited to normal glucose levels” value in data set [1] is 7.2 µM. This compound also gave a pIC50 in the data set “in vitro” of 4.08.
Turning to `C/C=C(/C)C(=O)O[C@H]1Cc2cc3ccc(=O)oc3cc2OC1(C)C` [Decursinol angelate, decursinol angelate], in data set [1], the “EC100, concentration at which high glucose-induced proliferation of A10 cells is inhibited to normal glucose levels” value is 4.4 µM. In data set [2], this compound showed a negative logarithm of the IC50 (pIC50) of 3.91.
Consider `CC1(C)Oc2cc3oc(=O)ccc3cc2C[C@@H]1O` [Decursinol, decursinol], for which the Diastolic blood pressure in data set [3] (0.5 mg/kg) is recorded as 91 mmHg; in data set [3] (1.0 mg/kg), 92 mmHg; in data set [3] (2.0 mg/kg), 92 mmHg; in data set [3] (5.0 mg/kg) it was 90 mmHg. The Systolic blood pressure in data set [3] (0.5 mg/kg) worked out at 110 mmHg; in data set [3] (1.0 mg/kg) it was 110 mmHg; in data set [3] (2.0 mg/kg), 117 mmHg; in data set [3] (5.0 mg/kg), 115 mmHg. For the same compound, in data set [4] (5.5 mM D-glucose, 25 μM solubilized decursinol, days 1-3), the “Effect on proliferation of A10 cells at normal sugar concentration” value is “did not significantly inhibit; also recorded: not affected”. The “Effect on proliferation of A10 cells in high glucose” value in data set [4] (30 mM D-glucose) is on record as “significantly inhibited; also recorded: inhibited cell proliferation in a dose-dependent manner”. In addition, in data set [4] (30 mM D-glucose, 25 μM solubilized decursinol, day 3), the “Inhibition of proliferation of A10 cells in high glucose” value is on record as “about 20%”. For the same compound, the “Live cells after treatment with decursinol” value in data set [5] is recorded as at least 98%. Further, the “Expression level of phospho-PKC in high sugar” value in data set [6] was “significantly decreased the increased expression level of phospho-PKC in high sugar in a dose-dependent manner”. Besides, in data set [1], the “EC100, concentration at which high glucose-induced proliferation of A10 cells is inhibited to normal glucose levels” value came out at 10.1 µM. The results for the pIC50 (in data set [7]; in the data set “in vitro”) were under 3.30 and at most 3.30, respectively.
